US20240287037A1, “CYCLOALKYL COMPOUNDS AND PHARMACEUTICAL COMPOSITIONS THAT MODULATE IKZF2” (Plexium, Inc., priority 2021, published 2024)

Columns and labels:
Type in all cases: cell-based
IKZF1 (Ikaros) = IKZF1 (Ikaros) (Homo sapiens (Human), UniProt Q13422+Q96SW2); assay: IKZF1 reporter degradation assay (HEK 293T IKZF1-mNeonGreen reporter cell line); conditions: HEK 293T reporter cells, 24 hour incubation
Text: (§1) Polycistronic plasmids were constructed for the mammalian expression of fluorescent reporter fusions of human transcription factors IKZF1 (Ikaros), IKZF2 (Helios), and IKZF3 (Aiolos). The respective protein sequences had their C-terminal end joined to a GGGGS linker repeated three times followed by mNeonGreen, P2A sequence, and mScarlet. The DNA sequences of the open reading frames are as follows:
(§2) IKZF1, IKZF2, and IKZF3 constructs were cloned into the UCOE Hygromycin expression vectors (Millipore Sigma). Reporter constructs were transfected using cationic lipid reagents into adherent HEK 293T cells and stable integrants were selected by treatment with 200 μg/mL hygromycin B. Clonal populations were obtained from the population of stable integrants either by limiting dilution or fluorescence activated cell sorting.
(§3) The clonal stable cell lines were maintained under constant 200 μg/mL hygromycin B selection while being passaged for use in the degradation assays. […] The fluorescence intensity of the IKZF1/2/3-mNeonGreen (FITC channel) and mScarlet (PE channel) reporters were routinely analyzed by flow cytometry to confirm consistent expression levels between experiments.
(§4) The IKZF1/IKZF2/IKZF3 degradation assays were carried out by harvesting the HEK 293T reporter cell lines and resuspending the cells in media formulated for reduced background fluorescence (FluoroBrite; Thermo Fisher). The respective cell lines were seeded at a density of 4000 cells/well into black-walled 384-well optical grade assay tissue culture plates. The cells were incubated overnight at 37° C. to allow for attachment to the assay plate. Dilutions of the compounds were prepared in DMSO from 10 mM compound stocks. The assay plates were treated with appropriate concentrations of the compounds by dispensing the DMSO dilutions in quadruplicate wells with an upper limit of 0.5% final DMSO.
(§5) After 24 hour incubation with the compounds, the assay plates were imaged on an ImageXpress Pico microscopy system (cells maintained at 37° C. during imaging) to obtain the fluorescent readouts. The assay plates were imaged in the FITC and Tetramethylrhodamine (TRITC) channels to obtain the mNeonGreen fluorescence intensity (reporter degradation data) and mScarlet fluorescence intensity (for cell segmentation). 293T-IKZF1 and 293T-IKZF3 reporter cell lines were imaged with exposures of 500 milliseconds (ms) for both FITC and TRITC channels, while the 293T-IKZF2 reporter cell line was imaged with exposures of 1000 ms for FITC and 1250 ms for TRITC. The resulting data was analyzed with Cell Reporter Xpress software using the 2-channel cell scoring analysis with a “percent positive” readout. The TRITC channel was selected for the “nuclei” segmentation with a threshold of 20 while the FITC channel was selected for the “Marker 1” segmentation and a threshold of 100 for the IKZF and IKZF3 reporter lines. […] The minimum segmentation width was set to 6 micrometers and the maximum segmentation width was set to 15 micrometers for all cell lines. The DC50 calculations were determined by regression to best fit four-parameter logistic curves using GraphPad Prism.

IKZF2 (Helios) = IKZF2 (Helios) (Homo sapiens (Human), UniProt Q96SW2+Q9UKS7); assay: IKZF2 reporter degradation assay (HEK 293T IKZF2-mNeonGreen reporter cell line); conditions: 24 hour incubation; for inhibition at 1 µM: HEK-293T, 24 h
IKZF2 (Helios), sequence (Q9UKS7 whole entry): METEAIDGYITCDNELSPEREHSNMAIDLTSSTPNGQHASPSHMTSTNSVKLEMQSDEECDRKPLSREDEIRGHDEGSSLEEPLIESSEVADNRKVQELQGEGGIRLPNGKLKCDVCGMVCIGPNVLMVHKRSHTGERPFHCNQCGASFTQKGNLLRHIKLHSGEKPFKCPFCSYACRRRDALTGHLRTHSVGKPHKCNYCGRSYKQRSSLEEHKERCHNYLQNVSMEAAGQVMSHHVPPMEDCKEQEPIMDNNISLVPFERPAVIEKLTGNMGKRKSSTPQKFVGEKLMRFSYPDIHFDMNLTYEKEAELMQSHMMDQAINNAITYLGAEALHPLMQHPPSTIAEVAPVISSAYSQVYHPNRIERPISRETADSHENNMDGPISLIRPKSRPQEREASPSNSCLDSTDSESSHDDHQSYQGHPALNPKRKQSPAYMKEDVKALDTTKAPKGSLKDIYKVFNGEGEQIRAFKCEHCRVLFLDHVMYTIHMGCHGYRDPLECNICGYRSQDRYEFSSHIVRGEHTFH
IKZF2 (Helios), sequence (Q96SW2 whole entry): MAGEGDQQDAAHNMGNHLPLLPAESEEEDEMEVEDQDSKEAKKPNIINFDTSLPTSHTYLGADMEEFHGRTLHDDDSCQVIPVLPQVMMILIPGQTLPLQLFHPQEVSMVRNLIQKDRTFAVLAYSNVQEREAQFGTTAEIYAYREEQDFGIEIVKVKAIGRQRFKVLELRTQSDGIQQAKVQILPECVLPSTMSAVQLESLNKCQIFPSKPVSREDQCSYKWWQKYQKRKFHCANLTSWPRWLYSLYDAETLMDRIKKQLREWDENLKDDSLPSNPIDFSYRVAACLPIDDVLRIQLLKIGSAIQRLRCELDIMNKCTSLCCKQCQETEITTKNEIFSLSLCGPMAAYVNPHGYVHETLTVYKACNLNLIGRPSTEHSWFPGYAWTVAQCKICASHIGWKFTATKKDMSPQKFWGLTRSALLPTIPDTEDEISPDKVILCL
IKZF2 (Helios), sequence (Q16531 whole entry partner): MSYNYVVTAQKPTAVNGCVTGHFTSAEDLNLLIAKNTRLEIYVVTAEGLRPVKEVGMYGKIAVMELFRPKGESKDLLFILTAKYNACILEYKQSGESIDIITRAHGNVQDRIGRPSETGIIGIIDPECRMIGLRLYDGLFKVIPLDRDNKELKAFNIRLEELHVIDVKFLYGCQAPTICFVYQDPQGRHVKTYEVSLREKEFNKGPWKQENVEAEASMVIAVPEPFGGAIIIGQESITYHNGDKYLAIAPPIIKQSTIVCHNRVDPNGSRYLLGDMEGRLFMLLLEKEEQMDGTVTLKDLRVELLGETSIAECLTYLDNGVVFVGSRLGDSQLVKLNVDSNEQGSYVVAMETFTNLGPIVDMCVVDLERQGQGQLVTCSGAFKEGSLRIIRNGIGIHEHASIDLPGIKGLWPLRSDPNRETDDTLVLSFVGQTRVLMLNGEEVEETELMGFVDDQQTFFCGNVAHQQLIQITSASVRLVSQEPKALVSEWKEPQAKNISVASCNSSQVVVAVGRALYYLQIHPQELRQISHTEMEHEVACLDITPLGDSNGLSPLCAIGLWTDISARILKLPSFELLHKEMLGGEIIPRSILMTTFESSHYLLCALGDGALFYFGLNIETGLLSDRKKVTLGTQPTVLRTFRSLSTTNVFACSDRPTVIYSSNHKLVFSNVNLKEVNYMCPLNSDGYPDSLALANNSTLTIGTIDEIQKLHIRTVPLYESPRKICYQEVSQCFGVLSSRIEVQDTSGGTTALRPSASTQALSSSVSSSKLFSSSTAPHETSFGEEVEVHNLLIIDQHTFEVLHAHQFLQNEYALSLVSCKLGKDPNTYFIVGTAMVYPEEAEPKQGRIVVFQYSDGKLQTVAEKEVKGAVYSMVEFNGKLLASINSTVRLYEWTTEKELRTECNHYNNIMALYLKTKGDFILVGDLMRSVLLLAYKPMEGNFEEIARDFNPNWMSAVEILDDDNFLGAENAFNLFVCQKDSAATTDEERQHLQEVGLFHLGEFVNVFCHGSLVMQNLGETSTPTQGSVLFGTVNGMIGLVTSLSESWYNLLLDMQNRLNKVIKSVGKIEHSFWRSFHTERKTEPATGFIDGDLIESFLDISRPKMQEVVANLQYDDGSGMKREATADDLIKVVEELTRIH
Text: as §1, §2, §3, §4, §5

GSPT1 = GSPT1 (Homo sapiens (Human), UniProt P15170+Q96SW2); assay: GSPT1 reporter degradation assay (HEK293 hGSPT1 HiBiT-tagged cells); conditions: 24 hour incubation
GSPT1, sequence (P15170 whole entry): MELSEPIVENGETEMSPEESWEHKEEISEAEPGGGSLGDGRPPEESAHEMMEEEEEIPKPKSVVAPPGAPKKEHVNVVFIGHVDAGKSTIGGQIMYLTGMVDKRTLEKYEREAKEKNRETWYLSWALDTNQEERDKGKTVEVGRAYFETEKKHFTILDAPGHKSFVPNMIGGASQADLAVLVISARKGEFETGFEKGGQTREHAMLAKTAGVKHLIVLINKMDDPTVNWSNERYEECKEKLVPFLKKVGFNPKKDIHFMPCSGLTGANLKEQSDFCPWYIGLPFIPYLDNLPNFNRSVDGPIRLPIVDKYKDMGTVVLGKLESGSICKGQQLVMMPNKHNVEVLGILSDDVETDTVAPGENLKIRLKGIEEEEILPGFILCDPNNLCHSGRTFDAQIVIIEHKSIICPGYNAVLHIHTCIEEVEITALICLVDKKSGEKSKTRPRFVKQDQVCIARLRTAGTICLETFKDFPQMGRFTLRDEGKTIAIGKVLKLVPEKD
GSPT1, sequence (Q96SW2 whole entry): as the sequence (Q96SW2 whole entry) above
GSPT1, sequence (Q16531 whole entry partner): as the sequence (Q16531 whole entry partner) above
Experimental: HEK293_hGSPT1_HiBiT-tagged cells were generated using CRISPR-Cas12a technology. Briefly, ˜400,000 HEK293 cells were transiently co-transfected with precomplexed ribonuclear proteins (RNPs) consisting of […] of crRNA (IDT), […] of Cas12a protein (IDT), 3 μg of ssODN donor (IDT; AltRTM modifications), 78 pmol of electroporation enhancer (IDT), and 200 ng of pMaxGFP (Lonza). The transfection was performed via nucleofection (Lonza, 4D-Nucleofector X-unit) using solution P3 and program CM-130 in a (20 μL) cuvette. Five days post-nucleofection, cells were single-cell-sorted for GFP+ (transfected) cells by FACs in 96-well plates and clonally selected. Clones were screened and verified for the desired modification via targeted deep sequencing using gene-specific primers with partial Illumina adapter overhangs as previously described. In brief, clonal cell pellets were harvested, lysed, and used to generate gene-specific amplicons with partial Illumina adapters in PCR #1. Amplicons were indexed in PCR #2 and pooled with other targeted amplicons for other loci to create sequence diversity. Additionally, 10% PhiX sequencing control V3 (Illumina) was added to the pooled amplicon library prior to running the sample on a Miseq Sequencer System (Illumina) to generate paired 2×250 bp reads. Samples were demultiplexed using the index sequences, fastq files were generated, and NGS analysis was performed using CRIS.py.
The GSTP1 degradation assay was carried out by harvesting the HEK 293T reporter cell lines and resuspending the cells in media formulated for reduced background fluorescence (FluoroBrite; Thermo Fisher). The respective cell lines were seeded at a density of 8,000 cells/well into white-opaque 384-well optical grade assay tissue culture plates (Greiner 781080-20). The cells were incubated overnight at 37° C. to allow for attachment to the assay plate. Dilutions of the compounds were prepared in DMSO from 10 mM compound stocks. […] Plates were centrifuged at 320×g for 2 minutes at room temperature, and subsequently incubated at 37° C.
After 24 hour incubation with the compounds, the plates were allowed to cool to room temperature for 10 minutes. 30 μL of HiBiT lytic buffer+1:50 HiBiT substrate Solution were added to each well. Plates were centrifuged at 320×g for 2 minutes at room temperature and then incubated with shaking at room temperature for 10 minutes covered with foil. Plates were read on a CLARIOstar microplate reader (BMG LabTech), measuring at 450 nm (donor emission) and 610 nm or 630 nm (acceptor emission). The DC50 values were determined by regression to best fit four-parameter logistic curves using GraphPad Prism.

[1] = Table 3, HEK 293T reporter cells
[2] = second (untitled) table after Table 3

IKZF1 (Ikaros), sequence (Q13422 whole entry, the tested form may be a part): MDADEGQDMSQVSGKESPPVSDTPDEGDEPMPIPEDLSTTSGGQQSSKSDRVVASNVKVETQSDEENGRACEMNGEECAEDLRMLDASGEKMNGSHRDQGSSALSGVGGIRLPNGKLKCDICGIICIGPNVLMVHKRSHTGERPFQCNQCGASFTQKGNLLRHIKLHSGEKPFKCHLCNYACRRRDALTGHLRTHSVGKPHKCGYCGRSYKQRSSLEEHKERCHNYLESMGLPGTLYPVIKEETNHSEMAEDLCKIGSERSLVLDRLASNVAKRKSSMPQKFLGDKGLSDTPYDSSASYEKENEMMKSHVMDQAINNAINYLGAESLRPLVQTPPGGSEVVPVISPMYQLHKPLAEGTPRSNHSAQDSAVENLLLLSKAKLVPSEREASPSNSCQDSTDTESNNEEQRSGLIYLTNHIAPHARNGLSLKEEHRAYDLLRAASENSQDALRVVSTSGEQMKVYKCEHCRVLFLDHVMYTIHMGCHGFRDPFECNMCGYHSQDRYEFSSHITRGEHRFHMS
IKZF1 (Ikaros), sequence (Q96SW2 whole entry, the tested form may be a part): as the sequence (Q96SW2 whole entry) above
IKZF1 (Ikaros), sequence (Q16531 whole entry partner, the tested form may be a part): as the sequence (Q16531 whole entry partner) above

DC50 (IKZF1 (Ikaros)) [µM]	DC50 (IKZF2 (Helios); HEK 293T reporter cells) [µM]	inhibition at 1 µM (IKZF2 (Helios); [1]) [%]	inhibition at 1 µM (IKZF2 (Helios); [2]) [%]	DC50 (GSPT1) [µM]	Compound
> 30	0.003	86.3	86.3	> 30	O=C1CCC(N2Cc3cc(O[C@H]4CCCC[C@@H]4N4CC(C5CCCC5)C4)ccc3C2=O)C(=O)N1 (stereo partly drawn) [Compound 6, 3-(5-(((1S,2S)-2-(3-cyclopentylazetidin-1-yl)cyclohexyl)oxy)-1-oxoisoindolin-2-yl)piperidine-2,6-dione]
> 30	0.01	86.7	86.7	> 30	O=C1CCC(N2Cc3c(ccc(O[C@H]4CCCC[C@@H]4N4CC(C5CCC5)C4)c3F)C2=O)C(=O)N1 (stereo partly drawn) [Compound 25, 3-(5-(((1S,2S)-2-(3-cyclobutylazetidin-1-yl)cyclohexyl)oxy)-4-fluoro-1-oxoisoindolin-2-yl)piperidine-2,6-dione]
> 30	0.003	74.6	74.6	> 30	O=C1CCC(N2Cc3cc(O[C@H]4CCCC[C@@H]4N4CC(C5CCC(F)(F)CC5)C4)ccc3C2=O)C(=O)N1 (stereo partly drawn) [Compound 2, 3-(5-(((1S,2S)-2-(3-(4,4-difluorocyclohexyl)azetidin-1-yl)cyclohexyl)oxy)-1-oxoisoindolin-2-yl)piperidine-2,6-dione]
